Results on three compounds are retold here after US5665745A, “Heterocyclic compounds and their preparation and use” (Eli Lilly and Company, priority 1995, dated 1997).

Read-outs that look alike come from different tables or passages of the source.

The target in test [1] is muscarinic acetylcholine receptors. The test is described as follows: inhibition of specific binding of ^3 H-Oxotremorine-M (^3 H-Oxo). The arrangement: species or system rat (male Wistar. Conditions: ^3 H-Oxotremorine 1.0 nM, rat cortex, 30 min. at 25° C. A digest of the protocol:
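Rat cortex membranes (male Wistar) in 20 mM Hepes pH 7.4 incubated with 1.0 nM ^3H-Oxotremorine-M (final) and test compound for 30 min at 25 °C; arecoline defines non-specific binding. Bound radioactivity by filtration and scintillation counting; IC50 (nM) from a single concentration via Co/Cx mass-action formula, reflecting high- and medium-affinity sites.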

The target of test [2] is T1, muscarinic receptors (M1 -site, pirenzepine sensitive site) (Rattus norvegicus, UniProt P08482).
T1 construct: from tissue; host or cells: cerebral cortex membranes of male Wistar rats
T1 sequence (P08482 1-460): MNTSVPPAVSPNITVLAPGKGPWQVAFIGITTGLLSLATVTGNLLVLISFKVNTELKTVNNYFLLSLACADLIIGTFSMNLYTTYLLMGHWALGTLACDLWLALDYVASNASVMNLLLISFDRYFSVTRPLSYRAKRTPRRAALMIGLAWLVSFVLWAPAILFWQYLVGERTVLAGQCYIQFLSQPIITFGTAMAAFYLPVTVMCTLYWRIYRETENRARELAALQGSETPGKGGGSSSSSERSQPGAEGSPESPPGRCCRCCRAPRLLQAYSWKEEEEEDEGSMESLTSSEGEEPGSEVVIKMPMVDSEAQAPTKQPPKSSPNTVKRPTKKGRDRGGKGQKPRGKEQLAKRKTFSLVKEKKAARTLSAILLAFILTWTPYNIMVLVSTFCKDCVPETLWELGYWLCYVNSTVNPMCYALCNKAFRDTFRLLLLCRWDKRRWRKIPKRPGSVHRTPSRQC
In words: inhibition of ^3 HPRZ (pirenzepine, [N-methyl-^3 H]) binding to rat cerebral cortex membranes. The arrangement: species or system rat (male Wistar. Conditions: ^3 HPRZ 1.0 nM, rat cortex, 60 min. at 20° C.; read-out: ^3 HPRZ IC50 (head from b208 on: Pir IC-50). A digest of the protocol: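 Male Wistar rat cortex membranes in 20 mM Hepes pH 7.4 were incubated with 1.0 nM (final) [3H]pirenzepine for 60 min at 20° C; nonspecific binding was defined with 1 μg/mL atropine. Filtration and scintillation counting were used, and IC50 was calculated from a single concentration assuming mass-action kinetics.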

Test [3] addresses muscarinic receptor in the CNS. Conditions: cited from earlier work.
Test [4] has as its system M1 -sites. Conditions: background statement; cited from earlier work.
Test [5] has as its system M2 -sites. Conditions: background statement; cited from earlier work.

Usually IC50 stands for the midpoint of a concentration-inhibition curve. With `CCCCSc1nsnc1OCCN(C)C` [Compound 144, 3-Butylthio-4-(2-dimethylaminoethoxy)-1,2,5-thiadiazole], the IC50 was 12 nM in test [1] and 9 nM in test [2].

`C[N+](C)(C)CC#CCN1CCCC1=O` [^3 H-Oxo]: the Kd in test [3] (first of three sites labeled (high affinity)) was 1.8 nM; in test [3] (second of three sites labeled (medium affinity)), 20 nM; in test [3] (third of three sites labeled, read-out: affinity), 3000 nM.

Regarding `CN1CCN(CC(=O)N2c3ccccc3C(=O)Nc3cccnc32)CC1` [pirenzepine], the “selectivity for muscarinic receptor subtype” value in test [4] was “selective for M1 -sites”. Also, the “interaction with M2 -sites” value in test [5] is given as “also interact with M2 -sites”.
